From ChEMBL document CHEMBL6134785, “New ATP-competitive inhibitors of E. coli GyrB obtained from the mapping of the hydrophobic floor at the binding site: synthesis and biological evaluation” (RSC Med Chem, 2024)

Biological target: DNA gyrase (Escherichia coli, UniProt P0AES4+P0AES6)
Assay: Inhibition of Escherichia coli DNA gyrase supercoiling activity incubated for 30 mins in presence of spermidine/ATP by fluorescence based analysis
Type: protein-complex assay

O=C(O)C(=O)Nc1ccc2nc(N(Cc3cccc(C(=O)O)c3)C(=O)c3cc(Br)c(Br)[nH]3)sc2c1
IC50: 96 nM

O=C(O)C(=O)Nc1ccc2c(c1)s/c(=N\C(=O)c1cc(Br)c(Br)[nH]1)n2Cc1ccccc1
IC50: 134 nM

O=C(O)C(=O)Nc1ccc2nc(N(Cc3ccccc3)C(=O)c3cc(Br)c(Br)[nH]3)sc2c1
IC50: 19 nM
